Results as given in US9540323B2 (BRISTOL-MYERS SQUIBB COMPANY, priority 2012, dated 2017).
Counter-ions that a name gives are not always drawn. Like-named read-outs stand apart in the source and are kept apart here.

Legend:
[1] = target: cloned human P2Y1 receptors (Homo sapiens (Human), UniProt P47900); experiment: Binding Assay B - Scintillation Proximity Assay (SPA) for P2Y1 binding, [33P] 2MeS-ADP; details: SPA, 0.3 nM [33P] 2MeS-ADP, Cheng-Prusoff; read-out: P2Y1 Ki (nM) using binding assay B
cloned human P2Y1 receptors, sequence (P47900 whole entry): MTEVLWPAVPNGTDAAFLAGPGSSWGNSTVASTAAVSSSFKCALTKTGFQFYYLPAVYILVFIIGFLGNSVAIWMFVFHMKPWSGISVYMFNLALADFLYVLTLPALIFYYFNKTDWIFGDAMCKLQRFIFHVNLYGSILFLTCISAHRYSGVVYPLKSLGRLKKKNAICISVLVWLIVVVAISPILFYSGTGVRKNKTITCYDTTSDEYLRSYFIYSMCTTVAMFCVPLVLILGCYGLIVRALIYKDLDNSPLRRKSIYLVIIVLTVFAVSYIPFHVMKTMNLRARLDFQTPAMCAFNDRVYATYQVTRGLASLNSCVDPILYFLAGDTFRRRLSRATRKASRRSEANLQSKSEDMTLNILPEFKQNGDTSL
Description: Binding Assay B—Scintillation Proximity Assay (SPA) for P2Y1 Binding
A SPA membrane binding assay was used to identify inhibitors of [^33P] […] Reactions were allowed to proceed to completion at room temperature for 1 hour followed by centrifugation of the plate for 5 min. About 40 μL of the aqueous solution was aspirated. Plates were sealed and the [^33P]

[2] = test system: human platelet rich plasma (PRP); experiment: ADP induced platelet aggregation assay
[3] = Homo sapiens, Platelet, 5 min, read-out: PA IC50 (μM) @ 10 μM ADP, human PRP, 10 μM ADP, AUC at 5 minute
[4] = read-out: PA IC50 (μM) @ 10 μM ADP, human PRP, 10 μM ADP, AUC at 5 minute

`CC(C)n1nc(C(F)(F)F)cc1-c1c(F)cc(O)c2c1C(C)(C)CN2c1ccccc1NC(=O)Nc1nc2ccc(F)cc2s1` [Example 267, 1-(2-(5-Fluoro-7-hydroxy-4-(1-isopropyl-3-(trifluoromethyl)-1H-pyrazol-5-yl)-3,3-dimethylindolin-1-yl)phenyl)-3-(6-fluorobenzo[d]thiazol-2-yl)urea] showed a Ki [1] of 16.4 nM and an IC50 [2, 3] of 0.51 µM.
`CCC1(CC)CN(c2ccccc2NC(=O)Nc2ccc(C3CCCN3CC(C)C)cc2)c2c(O)ccc(F)c21` (stereo not drawn) [Example 30, 1-(2-(3,3-Diethyl-4-fluoro-7-hydroxyindolin-1-yl)phenyl)-3-(4-(1-isobutylpyrrolidin-2-yl)phenyl)urea] was tested, and the Ki [1] was 5.1 nM and the IC50 [2, 3] was 0.28 µM.
For `CC1(C)CN(c2ccccc2NC(=O)Nc2nc3ccc(Cl)nc3s2)c2c(O)cc(F)c(-c3nc4cc(Cl)ccc4s3)c21` [Example 141, 1-(2-(4-(5-Chlorobenzo[d]thiazol-2-yl)-5-fluoro-7-hydroxy-3,3-dimethylindolin-1-yl)phenyl)-3-(5-chlorothiazolo[5,4-b]pyridin-2-yl)urea], the IC50 [2, 3] was 0.55 µM.
With `CC1(C)CN(c2ccccc2NC(=O)Nc2nc3ccc(F)cc3s2)c2c(O)cc(F)c(-c3ccc(F)cc3)c21` [Example 219, 1-(2-(5-Fluoro-4-(4-fluorophenyl)-7-hydroxy-3,3-dimethylindolin-1-yl)phenyl)-3-(6-fluorobenzo[d]thiazol-2-yl)urea] the IC50 [2, 4] was 0.36 µM.
In the case of `COC(=O)c1ccc(-c2c(F)cc(O)c3c2C(C)(C)CN3c2ccccc2NC(=O)Nc2ccc(OC(F)(F)F)cc2)cc1` [Example 244, Methyl 4-(5-fluoro-7-hydroxy-3,3-dimethyl-1-(2-(3-(4-(trifluoromethoxy)phenyl)ureido)phenyl)indolin-4-yl)benzoate], the IC50 [2, 3] is reported as 0.3 µM.
Work on `COc1cncc(-c2ccc(O)c3c2C(C)(C)CN3c2ccccc2NC(=O)Nc2ccc(OC(F)(F)F)cc2)c1` [Example 118, 1-(2-(7-Hydroxy-4-(5-methoxypyridin-3-yl)-3,3-dimethylindolin-1-yl)phenyl)-3-(4-(trifluoromethoxy)phenyl) urea] yielded an IC50 [2, 3] of 0.6 µM.
Work on `CC1(C)CN(c2ccccc2NC(=O)Nc2ccc(OC(F)(F)F)cc2)c2c(O)cc(F)c(-c3ncc(Br)cn3)c21` [Example 166, 1-(2-(4-(5-Bromopyrimidin-2-yl)-5-fluoro-7-hydroxy-3,3-dimethylindolin-1-yl)phenyl)-3-(4-(trifluoromethoxy)phenyl)urea] yielded an IC50 [2, 3] of 1.25 µM.
`CC1(C)CN(c2ccccc2NC(=O)Nc2ccc(OC(F)(F)F)cc2)c2c(O)cc(F)c(-c3ccc(Cl)cc3)c21` [Example 220, 1-(2-(4-(4-Chlorophenyl)-5-fluoro-7-hydroxy-3,3-dimethylindolin-1-yl)phenyl)-3-(4-(trifluoromethoxy)phenyl)urea] gave an IC50 [2, 4] of 0.24 µM.
In the case of `CC1(C)CN(c2ccccc2NC(=O)Nc2nc3ccc(Cl)nc3s2)c2c(O)cc(F)c(-c3nc4ccc(F)cc4s3)c21` [Example 143, 1-(5-Chlorothiazolo[5,4-b]pyridin-2-yl)-3-(2-(5-fluoro-4-(6-fluorobenzo[d]thiazol-2-yl)-7-hydroxy-3,3-dimethylindolin-1-yl)phenyl)urea], the IC50 [2, 3] is reported as 0.33 µM.
In the case of `CC1(C)CN(c2ccccc2NC(=O)Nc2nc3ccc(Cl)nc3s2)c2c(O)cc(F)c(-c3ccc(Cl)s3)c21` [Example 145, 1-(5-Chlorothiazolo[5,4-b]pyridin-2-yl)-3-(2-(4-(5-chlorothiophen-2-yl)-5-fluoro-7-hydroxy-3,3-dimethylindolin-1-yl)phenyl)urea], the IC50 [2, 3] is reported as 0.13 µM.
In the case of `CC1(C)CN(c2ccccc2NC(=O)Nc2nc3ccc(F)cc3s2)c2c(O)cc(F)c(-c3ccc(Cl)s3)c21` [Example 140, 1-(2-(4-(5-Chlorothiophen-2-yl)-5-fluoro-7-hydroxy-3,3-dimethylindolin-1-yl)phenyl)-3-(6-fluorobenzo[d]thiazol-2-yl)urea], the IC50 [2, 3] is reported as 0.17 µM.
With `CC1(C)CN(c2ccccc2NC(=O)Nc2nc3ccc(Cl)cc3s2)c2c(O)ccc(-c3nc4cc(F)ccc4s3)c21` [Example 172, 1-(6-Chlorobenzo[d]thiazol-2-yl)-3-(2-(4-(5-fluorobenzo[d]thiazol-2-yl)-7-hydroxy-3,3-dimethylindolin-1-yl)phenyl)urea, TFA] the IC50 [2, 3] was 0.26 µM.
`CC1(C)CN(c2ccccc2NC(=O)Nc2csc(Cl)n2)c2c(O)cc(F)c(-c3nc4cc(Cl)ccc4s3)c21` [Example 167, 1-(2-(4-(5-Chlorobenzo[d]thiazol-2-yl)-5-fluoro-7-hydroxy-3,3-dimethylindolin-1-yl)phenyl)-3-(2-chlorothiazol-4-yl)urea] gave an IC50 [2, 3] of 0.47 µM.
Work on `CC1(C)CN(c2ccccc2NC(=O)Nc2ccc(OC(F)(F)F)cc2)c2c(O)cc(F)c(-c3ccc(C(F)(F)F)cc3)c21` [Example 222, 1-(2-(5-Fluoro-7-hydroxy-3,3-dimethyl-4-(4-(trifluoromethyl)phenyl)indolin-1-yl)phenyl)-3-(4-(trifluoromethoxy)phenyl)urea] yielded a Ki [1] of 35 nM.
Compound `CC1(C)CN(c2ccccc2NC(=O)Nc2nc3ccc(F)cc3s2)c2c(O)cc(F)c(-c3nc4cc(Cl)ccc4s3)c21` [Example 138, 1-(2-(4-(5-Chlorobenzo[d]thiazol-2-yl)-5-fluoro-7-hydroxy-3,3-dimethylindolin-1-yl)phenyl)-3-(6-fluorobenzo[d]thiazol-2-yl)urea] has an IC50 [2, 3] of 0.47 µM.
`CCC1(CC)CN(c2ccccc2NC(=O)Nc2nc3ccc(F)cc3s2)c2c(O)ccc(F)c21` [Example 32, 1-(2-(3,3-Diethyl-4-fluoro-7-hydroxyindolin-1-yl)phenyl)-3-(6-fluorobenzo[d]thiazol-2-yl)urea] showed an IC50 [2, 3] of 0.37 µM.
`CC1(C)CN(c2ccccc2NC(=O)Nc2ccc(OC(F)(F)F)cc2)c2c(O)ccc(-c3ccc(Cl)cn3)c21` [Example 122, 1-(2-(4-(5-Chloropyridin-2-yl)-7-hydroxy-3,3-dimethylindolin-1-yl)phenyl)-3-(4-(trifluoromethoxy)phenyl)urea] gave an IC50 [2, 3] of 0.51 µM.
`CC1(C)CN(c2ccccc2NC(=O)Nc2csc(Cl)n2)c2c(O)cc(F)c(-c3ccc(Cl)cc3)c21` [Example 221, 1-(2-(4-(4-Chlorophenyl)-5-fluoro-7-hydroxy-3,3-dimethylindolin-1-yl)phenyl)-3-(2-chlorothiazol-4-yl)urea] was tested, and the IC50 [2, 4] was 0.13 µM.
In the case of `CC1(C)CN(c2ccccc2NC(=O)Nc2ccc(OC(F)(F)F)cc2)c2c(O)ccc(-c3ccc(F)nc3)c21` [Example 115, 1-(2-(4-(6-Fluoropyridin-3-yl)-7-hydroxy-3,3-dimethylindolin-1-yl)phenyl)-3-(4-(trifluoromethoxy)phenyl) urea], the IC50 [2, 3] is reported as 0.31 µM.
For `CC1(C)CN(c2ccccc2NC(=O)Nc2csc(Cl)n2)c2c(O)cc(F)c(-c3ccc(C(F)(F)F)cn3)c21` [Example 169, 1-(2-Chlorothiazol-4-yl)-3-(2-(5-fluoro-7-hydroxy-3,3-dimethyl-4-(5-(trifluoromethyl)pyridin-2-yl)indolin-1-yl)phenyl)urea], the IC50 [2, 3] was 0.1 µM.
In the case of `CC1(C)CN(c2ccccc2NC(=O)Nc2nc3ccc(Cl)cc3s2)c2c(O)cc(F)c(-c3nc4cc(Cl)ccc4s3)c21` [Example 156, 1-(6-Chlorobenzo[d]thiazol-2-yl)-3-(2-(4-(5-chlorobenzo[d]thiazol-2-yl)-5-fluoro-7-hydroxy-3,3-dimethylindolin-1-yl)phenyl)urea], the IC50 [2, 3] is reported as 0.97 µM.
`CC1(C)CN(c2ccccc2NC(=O)Nc2nc3ccc(F)cc3s2)c2c(O)ccc(-c3nc4ccc(Cl)cc4s3)c21` [Example 137, 1-(2-(4-(6-Chlorobenzo[d]thiazol-2-yl)-7-hydroxy-3,3-dimethylindolin-1-yl)phenyl)-3-(6-fluorobenzo[d]thiazol-2-yl)urea] showed an IC50 [2, 3] of 1.06 µM.
`CC1(C)CN(c2ccccc2NC(=O)Nc2nc3ccc(Cl)cc3s2)c2c(O)cc(F)c(-c3nc4ccc(F)cc4s3)c21` [Example 139, 1-(6-Chlorobenzo[d]thiazol-2-yl)-3-(2-(5-fluoro-4-(6-fluorobenzo[d]thiazol-2-yl)-7-hydroxy-3,3-dimethylindolin-1-yl)phenyl)urea] was tested, and the IC50 [2, 3] was 0.57 µM.
Work on `CC1(C)CN(c2ccccc2NC(=O)Nc2ccc(OC(F)(F)F)cc2)c2c(O)cc(F)c(-c3ccc(Cl)s3)c21` [Example 142, 1-(2-(4-(5-Chlorothiophen-2-yl)-5-fluoro-7-hydroxy-3,3-dimethylindolin-1-yl)phenyl)-3-(4-(trifluoromethoxy)phenyl)urea] yielded an IC50 [2, 3] of 0.13 µM.
With `CC1(C)CN(c2ccccc2NC(=O)Nc2ccc(OC(F)(F)F)cc2)c2c(O)c(F)cc(-c3nc4cc(Cl)ccc4s3)c21` [Example 177, 1-(2-(4-(5-Chlorobenzo[d]thiazol-2-yl)-6-fluoro-7-hydroxy-3,3-dimethylindolin-1-yl)phenyl)-3-(4-(trifluoromethoxy)phenyl)urea] the IC50 [2, 3] was 2.3 µM.
`CC1(C)CN(c2ccccc2NC(=O)Nc2ccc(OC(F)(F)F)cc2)c2c(O)ccc(-c3nc4ccc(Cl)cc4s3)c21` [Example 136, 1-(2-(4-(6-Chlorobenzo[d]thiazol-2-yl)-7-hydroxy-3,3-dimethylindolin-1-yl)phenyl)-3-(4-(trifluoromethoxy)phenyl)urea] showed an IC50 [2, 3] of 0.5 µM.
`CC1(C)CN(c2ccccc2NC(=O)Nc2ccc(OC(F)(F)F)cc2)c2c(O)cc(F)c(-c3cc(C(F)(F)F)n[nH]3)c21` [Example 275, 1-(2-(5-Fluoro-7-hydroxy-3,3-dimethyl 4-(3-(trifluoromethyl)-1H-pyrazol-5-yl)indolin-1-yl)phenyl)-3-(4-(trifluoromethoxy)phenyl)urea] was tested, and the IC50 [2, 3] was 5.69 µM.
`CC1(C)CN(c2ccccc2NC(=O)Nc2csc(C(F)(F)F)n2)c2c(O)cc(F)c(-c3ccc(Cl)cc3)c21` [Example 223, 1-(2-(4-(4-Chlorophenyl)-5-fluoro-7-hydroxy-3,3-dimethylindolin-1-yl)phenyl)-3-(2-(trifluoromethyl)thiazol-4-yl)urea] showed a Ki [1] of 34.4 nM.
